“Also recorded” adds a separate entry of the source.
How the values were obtained:
Format in all cases: in vivo
CD rat = experiment: Toxicity evaluation in rat after myocardial ischemia (Phase A: mortality, clinical observations, body weights); details: dose levels up to 2 mg/kg following myocardial ischemia
Method: This study was conducted to evaluate the effects of the Compound #6 on cardiac function, infarct size, and Troponin I levels in a model of ischemia/reperfusion in the CD® (CR1CD® (SD)) rat. Phase A was conducted for toxicity evaluation purposes. In Phase B (the efficacy phase), two treatment groups of eight male rats were administered Compound #6 at dose levels of 0.2 and 2 mg/kg via intravenous infusion following myocardial infarction. […]
The animals were placed on mechanical ventilation and not intubated. […] In Phase A, the animals were recovered from anesthesia and evaluated for 4 days. […]
In Phase A, body weights for all animals were measured and recorded at receipt, prior to randomization, just prior to surgery, and daily for 3 days during the study. In Phase B, body weights for all animals were measured and recorded at receipt, prior to each randomization as applicable, and just prior to surgery, except that a body weight was not recorded prior to randomization for the animals received in the second shipment. In both phases, the body weights recorded at receipt and prior to randomization are not reported but are maintained in the study file.

[1] = system: model of ischemia/reperfusion in the CD rat; experiment: Rat model of ischemia/reperfusion, cardiovascular monitoring (blood pressure, heart rate; Phase B)
Method: The animals in Phase B were monitored for selected cardiovascular endpoints from at least 15 minutes prior to acute myocardial infarction until at approximately 1 hour post reperfusion. Blood samples for the evaluation of Troponin I were collected from all surviving Phase B animals prior to coronary artery occlusion and at termination. At study termination, the Phase B animals were submitted to necropsy for limited necropsy examinations and infarct analysis.
In Phase B, Compound #6 was administered once on Day 0 via intravenous infusion at dose levels of 0.2 and 2 mg/kg. The doses were administered at a dose volume of 1 mL/kg (0.05 [2 mg/kg] or 0.033 [0.2 mg/kg] mL/kg/minute). Two control groups received the vehicle (saline) or the vehicle for Compound #6 (10% (w/v) 2-hydroxypropyl-beta-cyclodextrin and 100 mM sodium chloride in deionized water) in the same manner as the 2 mg/kg treated group. The vehicles and 2 mg/kg Compound #6 were administered intravenously via a slow infusion starting 3 to 14 minutes prior to reperfusion and continuing for 20 minutes to 20 minutes and 32 seconds, which was approximately 6 to 17 minutes after reperfusion (depending on the infusion start time). The 0.2 mg/kg Compound #6 was administered intravenously via a slow infusion starting 10 minutes prior to reperfusion and continuing for 30 minutes to 30 minutes and 30 seconds, which was approximately 20 minutes after reperfusion. The positive control article, Erythropoietin, was administered at 5000 IU/kg via a bolus intravenous injection. The positive control article dose was administered at a dose volume of 2.5 mL/kg. The positive control was administered via a 3 to 60 second injection at 5 minutes prior to reperfusion.
In Phase B, animals were anesthetized for monitoring of selected cardiovascular parameters. For experimentation, the blood pressure catheter implanted in the carotid artery was attached to an external transducer and data acquisition was started. Blood pressure (systolic, diastolic, and mean arterial) and heart rate (derived from blood pressure) were monitored from at least 15 minutes prior to acute myocardial infarction (AMI) until at least 1 hour after reperfusion. Individual animal cardiovascular data tables are not reported but are maintained in the study file.

[2] = system: model of ischemia/reperfusion in the CD rat; experiment: Rat model of ischemia/reperfusion, cardiac Troponin I concentration (Phase B); details: 0.2 and 2.0 mg/kg; prior to termination; not statistically different
Method: This study was conducted to evaluate the effects of the Compound #6 on cardiac function, infarct size, and Troponin I levels in a model of ischemia/reperfusion in the CD® (CR1CD® (SD)) rat. Phase A was conducted for toxicity evaluation purposes. In Phase B (the efficacy phase), two treatment groups of eight male rats were administered Compound #6 at dose levels of 0.2 and 2 mg/kg via intravenous infusion following myocardial infarction. The 2 mg/kg dose of Compound #6 was administered intravenously via a slow infusion starting 3 to 14 minutes prior to reperfusion and continuing for 20 minutes to 20 minutes and 32 seconds, which was approximately 6 to 17 minutes after reperfusion (depending on the infusion start time). The 0.2 mg/kg dose of Compound #6 was administered intravenously via a slow infusion starting 10 minutes prior to reperfusion and continuing for 30 minutes to 30 minutes and 30 seconds, which was approximately 20 minutes after reperfusion.
The animals in Phase B were monitored for selected cardiovascular endpoints from at least 15 minutes prior to acute myocardial infarction until at approximately 1 hour post reperfusion. […]
In Phase B, cardiac troponin I evaluations were conducted at 3 to 54 minutes prior to coronary artery occlusion and prior to termination on all animals. […] The samples were stored frozen at −50 to −90° C. until analyzed.

Cc1ccc(CN(CCN(Cc2ccc(C)cn2)Cc2ccc(C)cn2)Cc2ccc(C)cn2)nc1 [Compound #6]
toxicity in the rat (overall conclusion) (CD rat): not associated with any toxicity
mean arterial pressures after reperfusion ([1]; 0.2 mg/kg, within 5-10 minutes of reperfusion): increased
time at which blood pressure reached peak levels post reperfusion ([1]; 2 mg/kg, approximately 5 minutes following completion of the infusion): approximately 20 minutes
heart rate ([1]; 0.2 and 2.0 mg/kg): unaffected
blood pressures during infusion ([1]; both dose levels (0.2 and 2.0 mg/kg), returned to levels comparable to vehicle animals after infusion): slightly elevated
Troponin I (TnI) levels versus saline and vehicle control animals [2]: substantially lower TnI levels than both saline and vehicle control animals; also recorded: substantially lower, but not significantly lower
